Results as given in paper PMC7934871 (JCI Insight, 2021).

How the values were obtained:
pY705-STAT3 = test: Western blotting of p-STAT3 in HCT116 cells; assay type: cell-based, human
Source text: (§1) Figure 3 PS-acet.-STAT3 peptide inhibits STAT3 activity and downregulates the expression of STAT3 targets. (A) Downregulation of STAT3 activity and its downstream target proteins shown in human HCT116 colorectal cancer cells by Western blotting (data represent 1 of the 3 experiments, n = 3). PO-acet.-STAT3 and PS-STAT3-K685R peptides were used in parallel as controls. (B) STAT3 inhibition regulated the expression of proliferation and apoptotic genes, assessed by real-time quantitative PCR. Data present mean ± SD, n = 3 independent experiments, 1-way ANOVA; ***P < 0.005; **P < 0.01. […] For p53 promoter assay, data represent 3 replicates in 3 independent experiments (n = 9). For cell proliferation assay, data represent 3 independent experiments. SD is shown (n = 3). One-way ANOVA; ***P < 0.005; **P < 0.01.
Whole cell lysates or tissue homogenates were prepared by using RIPA lysis buffer (50 mM Tris at pH 7.4, 150 mM NaCl, 1 mM EDTA, 0.5% NP-40, 1 mM NaF, 15% glycerol, and 20 mM β-glycerophosphate). A protease inhibitor cocktail (Mini Protease Inhibitor Cocktail; Roche) and a tyrosine phosphatase inhibitor, sodium orthovanadate (Na3VO4, 1 mM), were added freshly to the lysis buffer. Protein amounts were determined by BCA using a Thermo Fisher Scientific kit. Normalized protein amounts were subjected to an SDS-PAGE and transferred onto a nitrocellulose membrane for Western blotting. […] The protein levels for STAT1 (sc-346, E-23), STAT3 (sc-482, C-20), STAT5 (sc-74442, A-9), Crm1 (exportin 1) (sc-5595, H-300), CAS (exportin 2) (sc-271537, H-2), exportin 5 (sc-66885, H-300), and exportin 7 (sc-98639, H-82) were determined using antibodies from Santa Cruz Biotechnology Inc. Anti–exportin 3 (exportin T, 630622, LOS1 05-1525), anti–exportin 4 (3499-1), and anti–exportin 6 (11408-1-AP) were from MilliporeSigma, Epitomics, and Proteintech, respectively. […]
(§2) Supplemental Figure 4 (related to Figure 1). […] Phosphorylation of STAT3 at Y705 and STAT5 at Y694 was detected by Western blotting after 48 hours treatment of PS-acet.-STAT3 peptide (1 µM) or napabucasin (1 µM) in HCT116 cells. […]

STAT3-regulated genes = test: Expression of STAT3 targets in HCT116 cells (Western blotting, qPCR); assay type: cell-based, human
Source text: as §1, with “For cell proliferation assay, data represent 3 independent experiments. SD is shown (n = 3). One-way ANOVA; ***P < 0.005; **P < 0.01.” left out
Whole cell lysates or tissue homogenates were prepared by using RIPA lysis buffer (50 mM Tris at pH 7.4, 150 mM NaCl, 1 mM EDTA, 0.5% NP-40, 1 mM NaF, 15% glycerol, and 20 mM β-glycerophosphate). […] Protein amounts were determined by BCA using a Thermo Fisher Scientific kit. […]
Total RNA was extracted from cultured or tumor tissues using RNeasy kit (QIAGEN), according to manufacturer’s instruction. After cDNA synthesis using iScript cDNA Synthesis kit (Bio-Rad), samples were analyzed using pairs of primers specific for CASP9, CASP3, CASP8, BIRC5, BCL2L1, MYC, TP53, VEGF, IL1B, SERPIN3, FGA, CDK4, CCND2, CDKN2A, CDKN2B, GADD45A, mCD274, mMmp9, and mBirc5, as indicated. […]

[1] = Systemic toxicity in mice; assay type: in vivo; details: 1 mg/kg i.v. every other day for 3 weeks, n = 3
Procedure: To evaluate the potential toxicity associated with systemic treatments of PS-peptide, PS-acet.-STAT3 peptide, PS-oligo, naive peptide, and PO- or PS-acet.-STAT3 peptide were given to the mice at 1 mg/kg through i.v. every other day for 3 weeks.
Supplemental Figure 10 (related to Figure 3). The systemic toxicity of PS-acet.-peptide.
The bodyweight (A), blood count (B) and organ morphology (H&E staining; spleen, kidney and liver) (C) of the mice (n=3) treated with HBSS (1), PS-oligo (2), naïve peptide (3), PO-peptide (4) or PS-peptide (5) every other day at 1 mg/kg (per treatment) for 3 weeks.
Individual value of each mouse is shown as a dot on the graph. The red lines on each graph in (B) indicate the normal ranges. Blood count was done by a veterinary hematology analyzer. The images shown in (C) are the represented H&E section from three mice (n=3). Enlarged view are shown below as indicated. Scale bar, 50 µm.
Aftabizadeh and Li et al., Figure S10

pY694-STAT5 = test: Western blotting of p-STAT5 in HCT116 cells; assay type: cell-based, human; details: HCT116, 1 µM, 48 hours
Procedure: Whole cell lysates or tissue homogenates were prepared by using RIPA lysis buffer (50 mM Tris at pH 7.4, 150 mM NaCl, 1 mM EDTA, 0.5% NP-40, 1 mM NaF, 15% glycerol, and 20 mM β-glycerophosphate). A protease inhibitor cocktail (Mini Protease Inhibitor Cocktail; Roche) and a tyrosine phosphatase inhibitor, sodium orthovanadate (Na3VO4, 1 mM), were added freshly to the lysis buffer. Protein amounts were determined by BCA using a Thermo Fisher Scientific kit. Normalized protein amounts were subjected to an SDS-PAGE and transferred onto a nitrocellulose membrane for Western blotting. Proteins were visualized with a chemiluminescent detection kit (Pierce, Thermo Fisher Scientific). The protein levels for STAT1 (sc-346, E-23), STAT3 (sc-482, C-20), STAT5 (sc-74442, A-9), Crm1 (exportin 1) (sc-5595, H-300), CAS (exportin 2) (sc-271537, H-2), exportin 5 (sc-66885, H-300), and exportin 7 (sc-98639, H-82) were determined using antibodies from Santa Cruz Biotechnology Inc. Anti–exportin 3 (exportin T, 630622, LOS1 05-1525), anti–exportin 4 (3499-1), and anti–exportin 6 (11408-1-AP) were from MilliporeSigma, Epitomics, and Proteintech, respectively. […]
as §2

With “PDIPKEEAFGK685(Ac)YCRPESQEHPC-linker-T*C*C*A*T*G*A*G*C*T*T*C*C*T*G*A*T*G*C*T [PS-acet.-STAT3 peptide]” as the substance, how does the “phosphorylated STAT3 (p-STAT3, Y705) level” value (pY705-STAT3; HCT116, 1 µM, 48 hours) read?
The value was “reduced”.

What about the “STAT3 activation (pY705-STAT3)” value (pY705-STAT3; HCT116, approximately 1 μM) of the same substance?
The value was “significant downregulation”.

What about the “expression of STAT3-regulated genes Survivin (BIRC5) and MYC, protein and mRNA” value (STAT3-regulated genes; HCT116, approximately 1 μM) of the same substance?
The value was “significant downregulation”.

And the “expression of STAT3-suppressed apoptotic genes TP53, CASP9, CASP3” value (STAT3-regulated genes; HCT116 and LoVo, real-time quantitative PCR)?
Its value is “upregulated”.

And the “behavior, body weight, blood counts” value [1]?
The value was “No behavior changes, body weight loss, or abnormal blood counts”.

And the “morphology and cell death in liver, spleen, kidney tissues (H&E)” value [1]?
Its value is “no significant morphology change or cell death”.

And the “p-STAT5 (Y694) level” value (pY694-STAT5)?
Its value is “not”.
